This experiment deals with EGFR Kinase (Homo sapiens, UniProt P00533). The experiment in a line: EGFR inhibitory activity test (HTRF kinEASE STK S1 kinase assay). It is filed as biochemical. Conditions: replicate wells, read-out: IC50(nM), Inhibitory Activity of Compounds on EGFR Kinase. The method, then: In a pilot study, the compounds disclosed herein were screened for their EGFR inhibitory activity. The Cisbio Research Product HTRF kinEASE STK S1 kinase assay/inhibitor screening Kit, can detect the generation of the phosphorylated substrate. Kinase, biotinylated substrate and ATP were first added into buffer solution, and the phosphorylated biotinylated substrates were formed by enzyme reaction. Then, to the above solution was added europium-labeled anti-phospho-site specific antibodies and XL665-labeled avidin. The Specific combinations of antibody with antigen, and biotin with avidin, bring the europium and XL665 closer together and resonance energy transferred. The signals at 620 nm and 665 nm were detected, and the activity of the kinase was evaluated by the ratio of the two signals value.
EGFR Kinase, sequence (P00533 25-1210): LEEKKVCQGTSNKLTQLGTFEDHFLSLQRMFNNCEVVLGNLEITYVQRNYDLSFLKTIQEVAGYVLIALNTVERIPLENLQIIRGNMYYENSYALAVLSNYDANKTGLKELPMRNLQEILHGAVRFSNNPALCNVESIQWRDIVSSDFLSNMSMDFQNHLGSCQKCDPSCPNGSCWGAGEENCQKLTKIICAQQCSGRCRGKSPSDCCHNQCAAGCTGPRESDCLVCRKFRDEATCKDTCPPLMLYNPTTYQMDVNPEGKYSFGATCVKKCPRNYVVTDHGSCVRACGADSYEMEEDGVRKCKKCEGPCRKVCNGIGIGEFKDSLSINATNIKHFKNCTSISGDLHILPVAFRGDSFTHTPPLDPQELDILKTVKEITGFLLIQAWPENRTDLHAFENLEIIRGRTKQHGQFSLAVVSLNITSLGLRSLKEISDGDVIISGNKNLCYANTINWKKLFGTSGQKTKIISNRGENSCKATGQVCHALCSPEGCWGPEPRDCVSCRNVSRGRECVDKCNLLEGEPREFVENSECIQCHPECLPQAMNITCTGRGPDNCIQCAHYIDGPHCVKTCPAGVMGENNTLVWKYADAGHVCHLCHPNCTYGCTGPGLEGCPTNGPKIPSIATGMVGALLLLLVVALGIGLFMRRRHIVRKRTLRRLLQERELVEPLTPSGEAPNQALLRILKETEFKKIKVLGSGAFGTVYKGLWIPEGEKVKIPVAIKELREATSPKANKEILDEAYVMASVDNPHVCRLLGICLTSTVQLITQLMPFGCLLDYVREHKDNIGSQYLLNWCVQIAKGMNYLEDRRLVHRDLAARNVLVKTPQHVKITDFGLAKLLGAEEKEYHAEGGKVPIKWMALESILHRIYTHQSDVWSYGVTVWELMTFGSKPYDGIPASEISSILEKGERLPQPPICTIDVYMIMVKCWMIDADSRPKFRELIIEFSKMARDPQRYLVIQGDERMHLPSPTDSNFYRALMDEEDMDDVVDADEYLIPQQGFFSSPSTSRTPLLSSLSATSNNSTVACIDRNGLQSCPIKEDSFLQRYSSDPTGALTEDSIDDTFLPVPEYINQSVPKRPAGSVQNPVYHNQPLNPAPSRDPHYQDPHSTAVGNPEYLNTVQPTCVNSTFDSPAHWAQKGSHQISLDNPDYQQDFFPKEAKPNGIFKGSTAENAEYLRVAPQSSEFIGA

Regarding `C#Cc1cc(Nc2ncnc3cc(OC)c(OCCCN4CC5OCCOC5C4)cc23)ccc1F` (stereo not shown) [Example 9, N-(3-ethynyl-4-fluorophenyl)-7-methoxy-6-(3-(tetrahydro-2H-[1,4]dioxino[2,3-c]pyrrol-6(3H)-yl)propoxy)quinazolin-4-amine], the half-inhibitory concentration (IC50) was in the range of 1 to 10 nM. Consider `COc1cc2ncnc(Nc3ccc(F)c(Cl)c3)c2cc1OCCCN1CCC2CCNC2C1` (stereo not shown) [Example 17, N-(3-chloro-4-fluorophenyl)-6-(3-(hexahydro-1H-pyrrolo[2,3-c]pyridin-6(2H)-yl)propoxy)-7-methoxyquinazolin-4-amine], for which the IC50 lay within 0.001 to 0.1 nM.

As to `COc1cc2ncnc(Nc3ccc(F)cc3)c2cc1OCCCN1CC2CNCC2C1` (stereo not shown) [Example 41, N-(4-fluorophenyl)-6-(3-(hexahydropyrrolo[3,4-c]pyrrol-2(1H)-yl)propoxy)-7-methoxyquinazolin-4-amine], the concentration for half-maximal inhibition (IC50) fell in the range of 0.001 to 0.1 nM.

Consider `CCN1CCCC2CN(CCCOc3cc4c(Nc5ccc(F)c(Cl)c5)ncnc4cc3OC)CC21` (stereo not shown) [Example 34, N-(3-chloro-4-fluorophenyl)-6-(3-(1-ethylhexahydro-1H-pyrrolo[3,4-b]pyridin-6(2H)-yl)propoxy)-7-methoxyquinazolin-4-amine], for which the IC50 fell in the range of 0.001 to 0.1 nM. For `COc1cc2ncnc(Nc3ccc(F)c(Cl)c3)c2cc1OCCCN1CCC2CCN(C)C2C1` (stereo not shown) [Example 18, N-(3-chloro-4-fluorophenyl)-7-methoxy-6-(3-(1-methylhexahydro-1H-pyrrolo[2,3-c]pyridin-6(2H)-yl)propoxy)quinazolin-4-amine], the half-inhibitory concentration (IC50) is 0.001 to 0.1 nM. Take `COc1cc2ncnc(Nc3ccc(F)c(Cl)c3)c2cc1OCCCN1CCc2nn(C)c(C)c2C1` [Example 39, N-(3-chloro-4-fluorophenyl)-6-(3-(2,3-dimethyl-6,7-dihydro-2H-pyrazolo[4,3-c]pyridine-5(4H)-yl)propoxy)-7-methoxyquinazolin-4-amine]: the half-inhibitory concentration (IC50) lay in the range of 1 to 10 nM.

Consider `COc1cc2ncnc(Nc3ccc(F)c(Cl)c3)c2cc1OCCCN1CCC2CN(C(C)=O)CC21` (stereo not shown) [Example 14, 1-(1-(3-((4-((3-chloro-4-fluorophenyl)amino)-7-methoxyquinazolin-6-yl)oxy)propyl)hexahydropyrrolo[3,4-b]pyrrol-5(1H)-yl)ethanone], for which the concentration for half-maximal inhibition (IC50) is 1 to 10 nM. For `COc1cc2ncnc(Nc3ccc(F)c(Cl)c3)c2cc1OCCCN1CCCC2CNCC21` (stereo not shown) [Example 26, N-(3-chloro-4-fluorophenyl)-7-methoxy-6-(3-(octahydro-1H-pyrrolo[3,4-b]pyridin-1-yl)propoxy) quinazolin-4-amine], the IC50 fell in the range of 0.001 to 0.1 nM. As for `COc1cc2ncnc(Nc3ccc(F)c(Cl)c3)c2cc1OCCCN1CCC2COCC2C1` (stereo not shown) [Example 37, N-(3-chloro-4-fluorophenyl)-6-(3-(hexahydrofuro[3,4-c]pyridin-5(3H)-yl)propoxy)-7-methoxy quinazolin-4-amine], the IC50 was in the range of 1 to 10 nM. In the case of `COc1cc2ncnc(Nc3ccc(F)c(Cl)c3)c2cc1OCCCN1CCn2cnnc2C1` [Example 3, N-(3-chloro-4-fluorophenyl)-6-(3-(5,6-dihydro-[1,2,4]triazolo[4,3-a]pyrazin-7(8H)-yl)propoxy)-7-methoxyquinazolin-4-amine], the concentration for half-maximal inhibition (IC50) lay in the range of 0.101 to 1 nM. The value for `COc1cc2ncnc(Nc3ccc(F)c(Cl)c3)c2cc1OCCCN1C[C@@H]2C[C@]2(O)C1` [Example 4, (1R,5S)-3-(3-((4-((3-chloro-4-fluorophenyl)amino)-7-methoxyquinazolin-6-yl)oxy)propyl)-3-azabicyclo[3.1.0]hexan-1-ol] was 0.001 to 0.1 nM; that for `COc1cc2ncnc(Nc3ccc(F)c(Cl)c3)c2cc1OCCCN1CCCC2OCCCC21` (stereo not shown) [Example 31, N-(3-chloro-4-fluorophenyl)-6-(3-(hexahydro-2H-pyrano[3,2-b]pyridin-5(3H)-yl)propoxy)-7-methoxyquinazolin-4-amine] was 0.001 to 0.1 nM. As to `COc1cc2ncnc(Nc3ccc(F)c(Cl)c3)c2cc1OCCCN1CC2CCOC(=O)C2C1` (stereo not shown) [Example 20, 2-(3-((4-((3-chloro-4-fluorophenyl)amino)-7-methoxyquinazolin-6-yl)oxy)propyl)hexahydropyrano[3,4-c]pyrrol-4(2H)-one], the IC50 lay in the range of 0.001 to 0.1 nM.
